Some test systems named below: SF-268; RPMI-8226; NCI-H226; HL-60; MOLT-4; EKVX; MDA-N; SN12C; SF-539; IGROV-1; SK-MEL-2; A549; 786-0; LOX IMVI; TK-10; NCI/ADR-RES; Malme-3M; Hs-578T; CAKI-1.
What all share (assay): DTP human tumour cell line panel, 48 h

Each structure is given as a SMILES string.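 Values below derive from 48-hour exposures of cells grown in 96-well plates, with endpoints linearly interpolated between the two concentrations bracketing the appropriate inhibition level. At the GI50, growth is halved.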 Activity calls are given as the source filed them. No stated cut-off is given here; in the data, active = GI50 up to about 1.1 µM and inactive = higher.

The term GI50 denotes the concentration that inhibits growth by half.

On to `O=C(O)c1c2c(cc3c1CC1(Cc4cc5c(cc4C1=O)CCC5)C3)CCC2` (stereo unspecified), for which the GI50 in the test on SF-268 was > 100 µM (inactive); in the test with RPMI-8226 it was > 100 µM (inactive); with NCI-H226 it was > 100 µM (inactive); in the test with HL-60, 65.2 µM (inactive); with MOLT-4, 50.8 µM (inactive); with EKVX, 87.5 µM (inactive). Moreover, the GI50 was > 100 µM (inactive) in the test on MDA-N; > 100 µM (inactive) with SN12C; > 100 µM (inactive) in the test on SF-539; > 100 µM (inactive) with IGROV-1; > 100 µM (inactive) in the test with SK-MEL-2; 54.8 µM (inactive) with A549. The GI50 in the test with 786-0 is > 100 µM (inactive); in the test with LOX IMVI, 57.1 µM (inactive); in the test with TK-10 it was > 100 µM (inactive); in the test on NCI/ADR-RES, > 100 µM (inactive); in the test with Malme-3M it was > 100 µM (inactive); in the test with Hs-578T, > 100 µM (inactive).
As to `O=C(c1cc(Cl)cc(Cl)c1)N(Cc1cccnc1)C(=S)N(Cc1cccnc1)C(=O)c1cc(Cl)cc(Cl)c1`, the GI50 with SF-268 is 41.3 µM (inactive); in the test with RPMI-8226, 4.37 µM (inactive); in the test with NCI-H226, 52.1 µM (inactive); in the test on CAKI-1, 41.3 µM (inactive); in the test with HL-60, 25.3 µM (inactive); with MOLT-4, 38.9 µM (inactive). The GI50 in the test with EKVX was 87.1 µM (inactive); with MDA-N it was 31.3 µM (inactive); in the test with SN12C, 41.4 µM (inactive); in the test with SF-539, 23.4 µM (inactive); with SK-MEL-2 it was 31.7 µM (inactive); in the test with A549 it was > 100 µM (inactive). The GI50 was 17.3 µM (inactive) in the test on 786-0; 34.1 µM (inactive) with LOX IMVI; 31.3 µM (inactive) in the test with TK-10; 37.4 µM (inactive) in the test on NCI/ADR-RES; 55.8 µM (inactive) with Malme-3M; 60.8 µM (inactive) in the test on Hs-578T.
With `Cc1cc(C)nc(NS(=O)(=O)c2ccc(NC(=O)c3cccc4c(NNc5ccc(S(=O)(=O)N=C(N)N)cc5)c5ccccc5nc34)cc2)n1`, the GI50 in the test with SF-268, in the test on RPMI-8226, with NCI-H226, in the test on CAKI-1, in the test on HL-60 and in the test on MOLT-4 was > 50 µM (inactive) throughout. The GI50 in the test on EKVX, in the test with MDA-N, in the test on SN12C, with SF-539, in the test with IGROV-1 and in the test on A549 was > 50 µM (inactive) in each case. Further, the GI50 with 786-0, in the test on LOX IMVI, in the test with TK-10, with NCI/ADR-RES, with Malme-3M and in the test with Hs-578T was > 50 µM (inactive) in each case.
Consider `Cc1nc(C)c(N2CCN(S(=O)(=O)N(Cc3ccccc3)Cc3ccccc3)CC2)c(O)n1`, for which the GI50 in the test with SF-268 was 6.85 µM (inactive); in the test with RPMI-8226, > 100 µM (inactive); with NCI-H226, 0.279 µM (active); with HL-60, > 100 µM (inactive); in the test with MOLT-4 it was > 100 µM (inactive); in the test with EKVX it was > 60 µM (inactive). Further, the GI50 with MDA-N is > 100 µM (inactive); in the test with SN12C it was > 100 µM (inactive); in the test on SF-539, 12.5 µM (inactive); in the test on IGROV-1, 16.8 µM (inactive); with SK-MEL-2, 26.7 µM (inactive); with A549, > 100 µM (inactive). Besides, the GI50 is 6.64 µM (inactive) with 786-0; 43.5 µM (inactive) in the test with LOX IMVI; 33.6 µM (inactive) with TK-10; > 61.4 µM (inactive) with NCI/ADR-RES; > 100 µM (inactive) in the test on Malme-3M; 3.4 µM (inactive) in the test on Hs-578T.
In the case of `CCOC(=O)C1(C(=O)OCC)C=C(c2ccccc2)N(C2OC(COC(C)=O)C(OC(C)=O)C(OC(C)=O)C2OC(C)=O)C1=S` (stereo unspecified), the GI50 in the test on SF-268 is > 100 µM (inactive); with RPMI-8226 it was 17 µM (inactive); in the test on NCI-H226, > 100 µM (inactive); with CAKI-1 it was > 100 µM (inactive); with HL-60, 22.9 µM (inactive); with MOLT-4 it was 42.4 µM (inactive). The GI50 with EKVX was > 100 µM (inactive); in the test with MDA-N, > 100 µM (inactive); with SN12C it was > 100 µM (inactive); in the test on SF-539, > 100 µM (inactive); in the test on IGROV-1, > 100 µM (inactive); with SK-MEL-2 it was 36.8 µM (inactive). Moreover, the GI50 is 59.2 µM (inactive) in the test with A549; > 100 µM (inactive) in the test with 786-0; > 100 µM (inactive) with LOX IMVI; 64.1 µM (inactive) with NCI/ADR-RES; > 100 µM (inactive) in the test with Malme-3M; 68.7 µM (inactive) with Hs-578T.
`CC(=O)CC(C)(C)NC(=O)[C@@]1(O)CC[C@H]2[C@@H]3CCC4=CC(=O)CC[C@@H]4[C@H]3CC[C@@]21C`: the GI50 in the test on SF-268 was > 100 µM (inactive); in the test on RPMI-8226 it was > 100 µM (inactive); in the test with NCI-H226, > 100 µM (inactive); with HL-60, 70.3 µM (inactive); in the test with MOLT-4, 56.4 µM (inactive); in the test on EKVX it was > 100 µM (inactive). Moreover, the GI50 in the test on MDA-N, in the test on SN12C, in the test on SF-539, in the test on IGROV-1, in the test on SK-MEL-2 and with A549 was > 100 µM (inactive) throughout. The GI50 with 786-0, in the test on LOX IMVI, with TK-10, in the test on NCI/ADR-RES, in the test with Malme-3M and in the test with Hs-578T was > 100 µM (inactive) throughout.
As for `Cc1ccnc2[nH]c(-c3ccccc3)cc(=O)c12`, the GI50 in the test on SF-268 is 0.0341 µM (active); in the test on RPMI-8226, 0.00731 µM (active); in the test with NCI-H226, 0.0246 µM (active); in the test on CAKI-1, 0.0116 µM (active); in the test with HL-60 it was 0.00188 µM (active); in the test with MOLT-4, 0.0132 µM (active). Also, the GI50 with EKVX was 0.3 µM (active); in the test on MDA-N, 0.0011 µM (active); in the test on SN12C, 0.0277 µM (active); in the test with SF-539, 0.0191 µM (active); in the test on IGROV-1, 0.0726 µM (active); in the test on A549 it was 0.0153 µM (active). The GI50 was 0.0124 µM (active) in the test on 786-0; 0.0149 µM (active) with LOX IMVI; 0.106 µM (active) with TK-10; 0.00451 µM (active) with NCI/ADR-RES; 0.0092 µM (active) with Malme-3M; 0.0114 µM (active) with Hs-578T.
For `CCN(CC)c1c(-c2c(N(CC)CC)c(OC(C)=O)c3sccn3c2=O)c(=O)n2ccsc2c1OC(C)=O`, the GI50 was 39.9 µM (inactive) in the test on SF-268; > 100 µM (inactive) in the test with RPMI-8226; 44.4 µM (inactive) with NCI-H226; > 100 µM (inactive) with CAKI-1; > 100 µM (inactive) with HL-60; > 100 µM (inactive) with MOLT-4. Besides, the GI50 in the test with EKVX was > 100 µM (inactive); in the test on MDA-N it was > 100 µM (inactive); with SN12C it was > 100 µM (inactive); in the test on SF-539 it was 85.5 µM (inactive); in the test with IGROV-1, 68.1 µM (inactive); in the test on SK-MEL-2, 93.8 µM (inactive). Further, the GI50 with 786-0 is 22.5 µM (inactive); in the test with LOX IMVI it was > 100 µM (inactive); in the test with TK-10, 33.2 µM (inactive); with NCI/ADR-RES, 49.5 µM (inactive); in the test with Malme-3M, > 100 µM (inactive); with Hs-578T, 38.8 µM (inactive).
For `c1cc(NNc2cccc(-c3nnn[nH]3)c2)cc(-c2nnn[nH]2)c1`, the GI50 with SF-268, in the test on RPMI-8226, with NCI-H226, in the test with CAKI-1, in the test on EKVX and in the test on MDA-N was > 100 µM (inactive) throughout. Besides, the GI50 in the test on SN12C, with SF-539, with IGROV-1, in the test with SK-MEL-2, in the test with A549 and with 786-0 was > 100 µM (inactive) throughout. In addition, the GI50 with LOX IMVI, with TK-10, with NCI/ADR-RES, in the test with Malme-3M and in the test on Hs-578T was > 100 µM (inactive) throughout.
`CC(=O)c1cc2c(s1)C(=O)c1scc(C(C)=O)c1C2=O`: the GI50 with SF-268 is 0.319 µM (active); with RPMI-8226, 0.209 µM (active); in the test on NCI-H226, 1.69 µM (inactive); in the test on CAKI-1, 0.929 µM (active); in the test with EKVX it was 0.485 µM (active); with MDA-N, 0.198 µM (active). Also, the GI50 in the test on SN12C was 0.273 µM (active); in the test with SF-539, 1.21 µM (inactive); with IGROV-1 it was 0.514 µM (active); in the test on SK-MEL-2 it was 0.586 µM (active); in the test on A549, 1.41 µM (inactive); in the test with 786-0, 0.724 µM (active). Besides, the GI50 in the test with LOX IMVI is 0.0711 µM (active); in the test on TK-10 it was 3.52 µM (inactive); in the test on NCI/ADR-RES it was 0.24 µM (active); with Malme-3M it was 0.385 µM (active); in the test with Hs-578T, 0.279 µM (active).
On to `S=C(c1c[nH]c2ccccc12)N1CCOCC1`, for which the GI50 in the test with SF-268 was 14.1 µM (inactive); in the test with RPMI-8226, > 100 µM (inactive); in the test with NCI-H226, 24.6 µM (inactive); in the test on CAKI-1, > 100 µM (inactive); in the test with HL-60, > 100 µM (inactive); in the test on MOLT-4 it was > 100 µM (inactive). Besides, the GI50 in the test with EKVX was 43.1 µM (inactive); in the test on MDA-N it was > 100 µM (inactive); in the test with SN12C, > 100 µM (inactive); in the test with SF-539, > 100 µM (inactive); in the test on IGROV-1 it was 36.3 µM (inactive); with SK-MEL-2 it was > 100 µM (inactive). The GI50 with 786-0 was > 100 µM (inactive); with LOX IMVI, > 100 µM (inactive); in the test on TK-10, > 100 µM (inactive); in the test with NCI/ADR-RES it was > 100 µM (inactive); in the test on Malme-3M it was 25 µM (inactive); in the test on Hs-578T it was 22.3 µM (inactive).

These data come from ChEMBL document CHEMBL1201862, “PubChem BioAssay data set” (2004).
